The values below come from patent EP0321849A2, “Method for the enzymatic hydrolysis of alpha-aminoadipinyl monoamino compounds” (HOECHST AKTIENGESELLSCHAFT, priority 1987, dated 1989).

The target in data set [1] is T1, γ-GTP (Bacillus subtilis, UniProt P54422). The data set can be described thus: Inhibition of γ-GTP by inhibitors (irreversible / reversible). Type of data set: biochemical. Set-up: Das Enzym kommt in Mikroorganismen periplasmatisch und extrazellulär vor; endogenous in cells; host or cells: Bacteria cultured in nutrient medium (genera Pseudomonas, Proteus, Arthrobacter, Bacillus); preferred Bac. subtilis IFO 3025. To be noted: in the presence of the substance; kind of inhibition (irreversible or reversible).

Data set [2] has as its target T1, γ-GTP. The data set can be described thus: Enzymatic hydrolysis of α-aminoadipinyl cephalosporins by γ-GTP enzyme concentrate (preparative conversion). Type of data set: biochemical, Bac. subtilis IFO 3025. On the set-up: Das so gewonnene Kulturfiltrat enthält 1350 U γ-GTP-Aktivität; endogenous in cells; host or cells: Bacillus subtilis IFO 3025 (natural producer); Culture filtrate, ammonium sulfate precipitation, DEAE-cellulose. The protocol:
Analog Beispiel 1 wird eine Vorkultur mit Bac. subtilis IFO 3025 angezogen. 50 ml dieser Kultur dienen als Inokulum für 2 l Hauptkulturlösung in einem 5 l-Fermenter. Die Anzucht des Stammes erfolgt bei 34°C und einem Sauerstoffpartialdruck von 70 %. Die Bildung der γ-GTP wird photometrisch verfolgt und die Kultur bei maximalem Enzymtiter abgeerntet. Unter den gegebenen Bedingungen wird ein γ-GTP-Titer von 150 mU/ml Kulturlösung erreicht.
9 l Kulturlösung werden mittels Cross-Flow-Filtration (Ausschlußgrenze 300 000 Dalton) in Kulturfiltrat und Zellmasse getrennt. Das so gewonnene Kulturfiltrat enthält 1350 U γ-GTP-Aktivität.
Durch Zugabe von Ammoniumsulfat ad 70 % d. S. wird das Enzym gefällt und in einem 1/10 des Volumens wieder aufgenommen. Nach Dialyse gegen 20 mM Tris, pH 8,0, wird über eine DEAE-Cellulose Säule (DE 52, Whatman) das Enzym weiter gereinigt. Die aktiven Eluate werden vereinigt und konzentriert. Ein so gewonnenes γ-GTP-Präparat (mit ca. 25 U γ-GTP/ml) wird für die Umsetzungen verwendet.
Für eine präparative Umsetzung von Desacetyl-CPC wird folgender Ansatz gewählt: 100 µl Enzymkonzentrat, hergestellt nach Beispiel 3, und 100 µl 40 mM Desacetyl-CPC, gelöst in 20 mM Kaliumphosphatpuffer, pH 7,3 werden bei einer Temperatur von 33°C inkubiert. […]

Substrate in data set [3]: N[C@@H](CCC(=O)Nc1ccc([N+](=O)[O-])cc1)C(=O)O
The data set can be described thus: Km determination of γ-GTP with L-γ-Glutamylparanitroanilid as substrate. To be noted: other: substrate of γ-GTP, pH 8, 37.0 °C. Type of data set: biochemical.

`[Hg]` [Quecksilber]: the “Hemmung der γ-GTP” value on γ-GTP [1] is on record as “reversible Hemmung”.
Same read-out and setting: next, `[Cu]` [Kupfer]: “reversible Hemmung”; `NC(=O)CI` [Jodacetamid]: “irreversibel gehemmt”.
`CC(=O)OCC1=C(C(=O)O)N2C(=O)[C@@H](NC(=O)CCC[C@@H](N)C(=O)O)[C@H]2SC1` [CPC, Cephalosporin C]: the 7-Aminocephalosporansäure released on γ-GTP [2] (incubation conditions as in Beispiel 4 (pH 7,3, 33°C)) turned out to be 3%.
For the molecule `[N-]=[N+]=CC(=O)OC[C@H](N)C(=O)O` [Azaserin], the “Hemmung der γ-GTP” value at γ-GTP [1] is listed as “irreversibel gehemmt”.
As to `N[C@H](CCCC(=O)N[C@@H]1C(=O)N2C(C(=O)O)=C(CO)CS[C@H]12)C(=O)O` [Desacetyl-CPC], the Desacetyl-7-Aminocephalosporansäure formed at γ-GTP [2] (100 µl enzyme concentrate + 100 µl 40 mM substrate in 20 mM potassium phosphate buffer pH 7,3, 33°C) is ≤ 16%.
Take `CC(=O)OCC1=C(C(=O)O)N2C(=O)[C@@H](N)[C@H]2SC1` [7-Aminocephalosporansäure]: the “Hemmung der γ-GTP” value at γ-GTP [1] is listed as “reversible Hemmung”.

B1: γ-Glutamyltranspeptidase (γ-GTP) (Bacillus subtilis subsp. subtilis str. 168) (protein)
chain 1: DEYKQVDVGKDGMVATAHPLASEIGADVLKKGGNAIDAAVAIQFALNVTEPMMSGIGGGGFMMVYDGKTKDTTIIDSRERAPAGATPDMFLDENGKAIPFSERVTKGTAVGVPGTLKGLEEALDKWGTRSMKQLITPSIKLAEKGFPIDSVLAEAISDYQEKLSRTAAKDVFLPNGEPLKEGDTLIQKDLAKTFKLIRSKGTDAFYKGKFAKTLSDTVQDFGGSMTEKDLENYDITIDEPIWGDYQGYQIATTPPPSSGGIFLLQMLKILDHFNLSQYDVRSWEKYQLLAETMHLSYADRASYAGDPEFVNVPLKGLLHPDYIKERQQLINLDQVNKKPKAGDPWKYQEGSANYKQVEQPKDKVEGQ
chain 2: TTHFTVADRWGNVVSYTTTIEQLFGTGIMVPDYGVILNNELTDFDAIPGGANEVQPNKRPLSSMTPTILFKDDKPVLTVGSPGGATIISSVLQTILYHIEYGMELKAAVEEPRIYTNSMSSYRYEDGVPKDVLSKLNGMGHKFGTSPVDIGNVQSISIDHENGTFKGVADSSRNGAAIGINLKRK
notes: Das Enzym kommt in Mikroorganismen periplasmatisch und extrazellulär vor; endogenous in cells; host or cells: Bacteria cultured in nutrient medium (genera Pseudomonas, Proteus, Arthrobacter, Bacillus); preferred Bac. subtilis IFO 3025
As for B1, the Km in data set [3] was 17,8 µM.
